The test system of the assay is GABA-A receptor. The experiment in a line: 35S-TBPS binding assay on rat cerebral cortex cell membrane. Further details: species or system Sprague-Dawley rat. To be noted: 2 nM 35S-TBPS, GABA added, read-out: 35S-TBPS bindng test, IC50 on inhibiting the TBPS binding activity. As for the experimental part:
1.2.1 Extraction of Cerebral Cortex Cell Membrane:
1. The cerebral cortex of male Sprague-Dawley rat was isolated.
2. A pre-chilled 0.32 M sucrose solution (one tablet of protease inhibitor was added per 100 ml) was added to the cerebral cortex (the volume of sucrose solution was 10 times the volume of the cerebral cortex). The mixture was crushed with a 50 ml glass tissue homogenizer in batches and mixed well.
3. The mixture was centrifuged at 1500 g, 4° C. for 10 minutes, and the supernatant was collected.
4. The mixture was centrifuged at 20000 g, 4° C. for 30 minutes, and the supernatant was discarded.
5. The precipitate was resuspended with the pre-chilled phosphate buffer saline (PBS) (one tablet of protease inhibitor was added per 100 ml). An average of 4 ml of PBS was added per rat, and the mixture was mixed well with a glass tissue homogenizer.
6. The mixture was centrifuged at 10000 g, 4° C. for 10 minutes, and the supernatant was discarded.
7. Steps 5 and 6 were repeated three times.
8. Finally, the precipitate was resuspended with 4 volumes of PBS. The resulting solution was dispensed, frozen in liquid nitrogen, and stored at −80° C.
9. The protein concentration was measured by the bicinchoninic acid (BCA) method.
1.2.2 ^35S-TBPS Binding Assay
1. 230 μL of PBS was added to each well of a well plate with 1.1 ml volume.
2. 60 μL of the cerebral cortex cell membrane (5 μg/μL) solution was added to each well, and the mixture was mixed well.
3. The test compound (3 μL per well) was added, and the plate was incubated at 25° C. for 5 minutes. The DMSO concentration was 1%. The initial compound concentration was 1 NM, and a 3-fold dilution in gradient was carried out to obtain a total of 8 gradients and 2 replicates. 1% DMSO was used as a negative control, and 10 μM P026-2 was used as a positive control.
4. GABA was added at a final concentration of […], and incubated at 25° C. for 5 minutes. 1 mM GABA solution was formulated, and 1.5 μL of the solution was added to each well.
5. ^35S-TBPS was added at a final concentration of 2 nM. The concentration of isotope mother solution was 9.7 μM. After dilution with PBS for 100 times, 6 μL of the diluted isotope solution was added to each well.
6. The plate was incubated at 4° C. for 20 hours.
7. The FilterMate GF/C plate was pre-treated with 0.5% PEI, and incubated at 4° C. for 1 hour.
8. The FilterMate GF/C plate was washed with Universal Harvester twice, 50 ml PBS each time.
9. The reaction solution was transferred to the GF/C plate, and each well was washed 4 times with 900 μL PBS.
10. The washed GF/C plate was placed at 55° C. and dried for 10 minutes.
11. 40 μL of scintillation solution was added to each well, and the CPM value was read with TopCount.
1.2.3 Experimental Data Processing Method:
In the experiment, the CPM (counts per minute) value was read with TopCount. According to the readings of the High control (DMSO) and the Low control (10 μM of the positive compound) experimental groups, the % inhibition was calculated based on the following formula: % Inhibition=100×(CPMHigh control−CPMSample)/(CPMHigh control−CPMLow control)
The IC50 of the compound was calculated according to the following 4-parameter nonlinear logic formula: Y=Bottom+(Top−Bottom)/(1+10^((Log IC50−X)*Hill Slope)),
The effect of the compound of the present invention on the TBPS binding activity was determined by the above test, and the measured IC50 values are shown in Table 1.
A word on the IC50: it is the point on the concentration scale where inhibition reaches its midpoint. In the case of `Cc1cnn(CC(=O)[C@H]2CC[C@H]3[C@@H]4CC[C@@H]5C[C@](C)(O)CC[C@]5(F)[C@H]4CC[C@]23C)c1` [Example 11, 1-((3R,5R,8S,9S,10R,13S,14S,17S)-10-Fluoro-3-hydroxy-3,13-dimethylhexadecahydro-1H-cyclopenta[a]phenanthren-17-yl)-2-(4-methyl-1H-pyrazol-1-yl)ethan-1-one], the IC50 worked out at 41.3 nM.
Consider `C[C@]1(O)CC[C@@]2(F)[C@H](CC[C@H]3[C@@H]4CC[C@H](C(=O)CNS(=O)(=O)c5ccccc5)[C@@]4(C)CC[C@@H]32)C1` [Example 71, N-(2-((3S,5R,8S,9S,10R,13S,14S,17S)-10-Fluoro-3-hydroxy-3,13-dimethylhexadecahydro-1H-cyclopenta[a]phenanthren-17-yl)-2-oxoethyl)benzenesulfonamide], for which the IC50 amounted to 49 nM.
Regarding `C[C@@]1(O)CC[C@@]2(F)[C@H](CC[C@H]3[C@@H]4CC[C@H](C(=O)Cn5cc6c(n5)CCCC6)[C@@]4(C)CC[C@@H]32)C1` [Example 21, 1-((3R,5R,8S,9S,10R,13S,14S,17S)-10-Fluoro-3-hydroxy-3,13-dimethylhexadecahydro-1H-cyclopenta[a]phenanthren-17-yl)-2-(4,5,6,7-tetrahydro-2H-indazol-2-yl)ethan-1-one], the IC50 worked out at 36.1 nM.
Take `C[C@@]1(O)CC[C@@]2(F)[C@H](CC[C@H]3[C@@H]4CC[C@H](C(=O)COc5cc(C#N)ccc5F)[C@@]4(C)CC[C@@H]32)C1` [Example 34, 4-Fluoro-3-(2-((3R,5R,8S,9S,10R,13S,14S,17S)-10-fluoro-3-hydroxy-3,13-dimethylhexadecahydro-1H-cyclopenta[a]phenanthren-17-yl)-2-oxoethoxy)benzonitrile]: the IC50 turned out to be 9.3 nM.
In the case of `C[C@@]1(O)CC[C@@]2(F)[C@H](CC[C@H]3[C@@H]4CC[C@H](C(=O)CNc5cccc(F)c5)[C@@]4(C)CC[C@@H]32)C1` [Example 25, 1-((3R,5R,8S,9S,10R,13S,14S,17S)-10-Fluoro-3-hydroxy-3,13-dimethylhexadecahydro-1H-cyclopenta[a]phenanthren-17-yl)-2-((3-fluorophenyl)amino)ethan-1-one], the IC50 was determined as 6.7 nM.
In the case of `C[C@@]1(O)CC[C@]2(F)C3CC[C@]4(C)[C@@H](C(=O)Cn5cc(C6CC6)nn5)CC[C@H]4[C@@H]3CC[C@@H]2C1` (stereo partly drawn) [Example 64, 2-(4-Cyclopropyl-1H-1,2,3-triazol-1-yl)-1-((3R,5R,8S,10R,13S,14S,17S)-10-fluoro-3-hydroxy-3,13-dimethylhexadecahydro-1H-cyclopenta[a]phenanthren-17-yl)ethan-1-one] it was 24.8 nM.
On to `C[C@@]1(O)CC[C@@]2(F)[C@H](CC[C@H]3[C@@H]4CC[C@H](C(=O)Cn5nnc6ccc(F)cc65)[C@@]4(C)CC[C@@H]32)C1` [Example 19, 2-(6-Fluoro-1H-benzo[d][1,2,3]triazol-1-yl)-1-((3R,5R,8S,9S,10R,13S,14S,17S)-10-fluoro-3-hydroxy-3,13-dimethylhexadecahydro-1H-cyclopenta[a]phenanthren-17-yl)ethan-1-one], for which the IC50 turned out to be 15.2 nM.
Regarding `C[C@@]1(O)CC[C@@]2(F)[C@H](CC[C@H]3[C@@H]4CC[C@H](C(=O)COc5cncnc5)[C@@]4(C)CC[C@@H]32)C1` [Example 49, 1-((3R,5R,8S,9S,10R,13S,14S,17S)-10-Fluoro-3-hydroxy-3,13-dimethylhexadecahydro-1H-cyclopenta[a]phenanthren-17-yl)-2-(pyrimidin-5-yloxy)ethan-1-one], the IC50 came to 48 nM.
Then `C[C@@]1(O)CC[C@@]2(F)[C@H](CC[C@H]3[C@@H]4CC[C@H](C(=O)Cn5ccc(C#N)n5)[C@@]4(C)CC[C@@H]32)C1` [Example 3, 1-(2-((3R,5R,8S,9S,10R,13S,14S,17S)-10-Fluoro-3-hydroxy-3,13-dimethylhexadecahydro-1H-cyclopenta[a]phenanthren-17-yl)-2-oxoethyl)-1H-pyrazole-3-carbonitrile], with 10.9 nM.
In the case of `C[C@@]1(O)CC[C@@]2(F)[C@H](CC[C@H]3[C@@H]4CC[C@H](C(=O)Cn5cc(-c6ncco6)cn5)[C@@]4(C)CC[C@@H]32)C1` [Example 52, 1-((3R,5R,8S,9S,10R,13S,14S,17S)-10-Fluoro-3-hydroxy-3,13-dimethylhexadecahydro-1H-cyclopenta[a]phenanthren-17-yl)-2-(4-(oxazol-2-yl)-1H-pyrazol-1-yl)ethan-1-one] it was 23 nM; in that of `C[C@@]1(O)CC[C@@]2(F)[C@H](CC[C@H]3[C@@H]4CC[C@H](C(=O)Cn5cc(C#N)c(C6CC6)n5)[C@@]4(C)CC[C@@H]32)C1` [Example 40, 3-Cyclopropyl-1-(2-((3R,5R,8S,9S,10R,13S,14S,17S)-10-fluoro-3-hydroxy-3,13-dimethylhexadecahydro-1H-cyclopenta[a]phenanthren-17-yl)-2-oxoethyl)-1H-pyrazole-4-carbonitrile], 12 nM; in that of `C[C@@]1(O)CC[C@@]2(F)[C@H](CC[C@H]3[C@@H]4CC[C@H](C(=O)CNc5ccc(F)cc5C#N)[C@@]4(C)CC[C@@H]32)C1` [Example 27, 5-Fluoro-2-((2-((3R,5R,8S,9S,10R,13S,14S,17S)-10-fluoro-3-hydroxy-3,13-dimethylhexadecahydro-1H-cyclopenta[a]phenanthren-17-yl)-2-oxoethyl)amino)benzonitrile], 7.5 nM.
Take `C[C@@]1(O)CC[C@@]2(F)[C@H](CC[C@H]3[C@@H]4CC[C@H](C(=O)CNc5ccccc5F)[C@@]4(C)CC[C@@H]32)C1` [Example 24, 1-((3R,5R,8S,9S,10R,13S,14S,17S)-10-Fluoro-3-hydroxy-3,13-dimethylhexadecahydro-1H-cyclopenta[a]phenanthren-17-yl)-2-((2-fluorophenyl)amino)ethan-1-one]: the IC50 was 10.2 nM.
For the compound `C[C@@]1(O)CC[C@@]2(F)[C@H](CC[C@H]3[C@@H]4CC[C@H](C(=O)COc5ccc(F)cc5F)[C@@]4(C)CC[C@@H]32)C1` [Example 36, 2-(2,4-Difluorophenoxy)-1-((3R,5R,8S,9S,10R,13S,14S,17S)-10-fluoro-3-hydroxy-3,13-dimethylhexadecahydro-1H-cyclopenta[a]phenanthren-17-yl)ethan-1-one], the IC50 turned out to be 13.7 nM.
On to `C[C@@]1(O)CC[C@@]2(F)[C@H](CC[C@H]3[C@@H]4CC[C@H](C(=O)Cn5cc([N+](=O)[O-])cn5)[C@@]4(C)CC[C@@H]32)C1` [Example 58, 1-((3R,5R,8S,9S,10R,13S,14S,17S)-10-Fluoro-3-hydroxy-3,13-dimethylhexadecahydro-1H-cyclopenta[a]phenanthren-17-yl)-2-(4-nitro-1H-pyrazol-1-yl)ethan-1-one], for which the IC50 was determined as 37.8 nM.
Regarding `C[C@@]1(O)CC[C@@]2(F)[C@H](CC[C@H]3[C@@H]4CC[C@H](C(=O)COc5ccc(C#N)cc5)[C@@]4(C)CC[C@@H]32)C1` [Example 33, 4-(2-((3R,5R,8S,9S,10R,13S,14S,17S)-10-Fluoro-3-hydroxy-3,13-dimethylhexadecahydro-1H-cyclopenta[a]phenanthren-17-yl)-2-oxoethoxy)benzonitrile], the IC50 was 13.8 nM.
`CSc1cnn(CC(=O)[C@H]2CC[C@H]3[C@@H]4CC[C@@H]5C[C@](C)(O)CC[C@]5(F)[C@H]4CC[C@]23C)c1` [Example 55, 1-((3R,5R,8S,9S,10R,13S,14S,17S)-10-Fluoro-3-hydroxy-3,13-dimethylhexadecahydro-1H-cyclopenta[a]phenanthren-17-yl)-2-(4-(methylthio)-1H-pyrazol-1-yl)ethan-1-one]: the IC50 was found to be 42.5 nM.

(Values after patent US11661437B2, “Steroid derivative regulators, method for preparing the same, and uses thereof” (priority 2018, dated 2023).)
